Results as given in the NIST ThermoML archive (doi:10.1016/j.tca.2009.03.014).

Assays:
[1] = 101.33 kPa, Liquid; for speed of sound: Linear variable-path acoustic interferometer; for mass density: Pycnometric method
[2] = excess molar enthalpy (molar enthalpy of mixing); xn = mol fraction of the nth substance listed; conditions: 308.15 K, 101 kPa, Liquid, Calvet calorimetry
[3] = xn = mol fraction of the nth substance listed; conditions: 308.15 K, 101 kPa, Liquid; for excess molar volume: Direct dilatometry; for speed of sound: Linear variable-path acoustic interferometer

CC(C)O [propan-2-ol]
[1], 298.15 K
Conditions	mass density [kg/m3]	speed of sound [m/s]
–	780.98	1135.9

CCCCO [butan-1-ol]
[1]
Conditions	mass density [kg/m3]	speed of sound [m/s]
298.15 K	809.5	–
308.15 K	–	1232.2

O=C1CCCN1 [2-pyrrolidinone] + CCCO
Conditions	excess molar enthalpy [kJ/mol]	excess molar volume [m3/mol]	speed of sound [m/s]
[2], x1 = 0.0592	0.248	–	–
[2], x1 = 0.1085	0.39	–	–
[2], x1 = 0.1966	0.567	–	–
[2], x1 = 0.2273	0.608	–	–
[2], x1 = 0.3287	0.672	–	–
[2], x1 = 0.3782	0.667	–	–
[2], x1 = 0.4394	0.649	–	–
[2], x1 = 0.495	0.61	–	–
[2], x1 = 0.5219	0.581	–	–
[2], x1 = 0.5951	0.522	–	–
[2], x1 = 0.6622	0.45	–	–
[2], x1 = 0.7539	0.338	–	–
[2], x1 = 0.8065	0.284	–	–
[2], x1 = 0.8946	0.166	–	–
[3], x1 = 0.0349	–	-2.3e-08	–
[3], x1 = 0.0973	–	-6.7e-08	–
[3], x1 = 0.0982	–	–	1219.3
[3], x1 = 0.1436	–	-1e-07	–
[3], x1 = 0.158	–	–	1240.8
[3], x1 = 0.1968	–	–	1255
[3], x1 = 0.2052	–	-1.38e-07	–
[3], x1 = 0.2654	–	-1.75e-07	–
[3], x1 = 0.2958	–	–	1294.4
[3], x1 = 0.3299	–	-2.08e-07	–
[3], x1 = 0.3309	–	–	1308.9
[3], x1 = 0.3881	–	-2.27e-07	–
[3], x1 = 0.3952	–	–	1336.5
[3], x1 = 0.4485	–	–	1359.7
[3], x1 = 0.4495	–	-2.44e-07	–
[3], x1 = 0.4949	–	–	1380.7
[3], x1 = 0.521	–	–	1391.8
[3], x1 = 0.5246	–	-2.48e-07	–
[3], x1 = 0.5749	–	-2.46e-07	–
[3], x1 = 0.5951	–	–	1425.6
[3], x1 = 0.6516	–	-2.27e-07	–
[3], x1 = 0.6957	–	–	1470.7
[3], x1 = 0.7314	–	–	1485.7
[3], x1 = 0.7453	–	-1.85e-07	–
[3], x1 = 0.7968	–	–	1515.4
[3], x1 = 0.8357	–	-1.29e-07	–
[3], x1 = 0.8982	–	–	1558.4
[3], x1 = 0.9206	–	-6.5e-08	–

O=C1CCCN1 [2-pyrrolidinone] + CC(C)O
Conditions	excess molar enthalpy [kJ/mol]	excess molar volume [m3/mol]	speed of sound [m/s]
[2], x1 = 0.0841	0.461	–	–
[2], x1 = 0.1776	0.783	–	–
[2], x1 = 0.2315	0.878	–	–
[2], x1 = 0.334	0.945	–	–
[2], x1 = 0.3758	0.95	–	–
[2], x1 = 0.4453	0.913	–	–
[2], x1 = 0.501	0.861	–	–
[2], x1 = 0.6009	0.731	–	–
[2], x1 = 0.6811	0.603	–	–
[2], x1 = 0.7151	0.54	–	–
[2], x1 = 0.7626	0.463	–	–
[2], x1 = 0.8338	0.344	–	–
[2], x1 = 0.8794	0.265	–	–
[2], x1 = 0.9223	0.179	–	–
[3], x1 = 0.0825	–	-9.8e-08	–
[3], x1 = 0.0835	–	–	1144.9
[3], x1 = 0.1311	–	-1.54e-07	–
[3], x1 = 0.1329	–	–	1166.9
[3], x1 = 0.1719	–	-1.97e-07	–
[3], x1 = 0.1976	–	–	1196.8
[3], x1 = 0.2365	–	-2.59e-07	–
[3], x1 = 0.2597	–	–	1225.6
[3], x1 = 0.2949	–	-3.07e-07	–
[3], x1 = 0.3244	–	–	1256
[3], x1 = 0.348	–	-3.36e-07	–
[3], x1 = 0.3815	–	–	1283.5
[3], x1 = 0.4267	–	-3.69e-07	–
[3], x1 = 0.4394	–	–	1311.6
[3], x1 = 0.4756	–	-3.81e-07	–
[3], x1 = 0.5031	–	–	1343.3
[3], x1 = 0.5682	–	–	1376.4
[3], x1 = 0.5684	–	-3.74e-07	–
[3], x1 = 0.6159	–	–	1401.1
[3], x1 = 0.6315	–	-3.51e-07	–
[3], x1 = 0.6879	–	–	1439.2
[3], x1 = 0.6921	–	-3.17e-07	–
[3], x1 = 0.7193	–	-2.98e-07	–
[3], x1 = 0.765	–	–	1479.9
[3], x1 = 0.8048	–	-2.29e-07	–
[3], x1 = 0.8223	–	–	1511.6
[3], x1 = 0.8941	–	-1.33e-07	–
[3], x1 = 0.9042	–	–	1553.8
